{"source": "patent US11427542B2", "about": "“Compounds for treatment of cardiac arrhythmias and heart failure” (Elex Biotech, Inc., priority 2018, dated 2022)", "origin": "cited, not measured here", "system": "R176Q/+ mice", "conditions": "cardiac pacing, versus placebo-treated"}
{"smiles": "CCCCNc1ccc(C(=O)OCCN(CC)CC)c(OC)c1", "note": "[Compound 1]", "values": [{"measurement": "arrhythmic development (bidirectional VT / sustained polymorphic VT) following pacing", "value": "protected from arrhythmic development following pacing"}]}
